Numbering of substitutions follows the chain as printed. Entries after “also recorded” stand apart in the source; their conditions may differ.

Test [1] addresses T1, PanK3(A267F) (Homo sapiens, UniProt Q9H999, A267F).
T1 sequence (Q9H999 1-370 A267F): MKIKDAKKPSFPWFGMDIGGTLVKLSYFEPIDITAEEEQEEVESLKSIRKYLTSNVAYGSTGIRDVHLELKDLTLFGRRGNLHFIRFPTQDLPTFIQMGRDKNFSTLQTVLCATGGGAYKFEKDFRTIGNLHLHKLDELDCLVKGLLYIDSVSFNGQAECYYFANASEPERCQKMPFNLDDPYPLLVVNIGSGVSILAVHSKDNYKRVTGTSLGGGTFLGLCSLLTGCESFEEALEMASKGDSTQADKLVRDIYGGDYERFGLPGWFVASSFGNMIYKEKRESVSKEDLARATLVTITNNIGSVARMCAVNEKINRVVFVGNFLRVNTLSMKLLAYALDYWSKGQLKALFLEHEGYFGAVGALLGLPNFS
As to the kind of experiment: TNP-ATP binding to PanK3.

The target in test [2] is T2, PanK3(R207A) (Homo sapiens, UniProt Q9H999, R207A).
T2 sequence (Q9H999 1-370 R207A): T1 sequence (Q9H999 1-370 A267F) with R207A, F267A
Nature of the test: TNP-ATP binding to PanK3.

The target of test [3] is T3, PanK3 (Homo sapiens, UniProt Q9H999). As to the kind of experiment: TNP-ATP fluorescent ATP analog binding to PanK3.
Test [4] has as its target T4, PanK3(A269F) (Homo sapiens, UniProt Q9H999, A269F).
T4 sequence (Q9H999 1-370 A269F): T1 sequence (Q9H999 1-370 A267F) with F267A, A269F
Nature of the test: TNP-ATP binding to PanK3.

The target in test [5] is T5, PanK2 (Homo sapiens, UniProt Q9BZ23).
T5 sequence (Q9BZ23 141-570 limits assumed): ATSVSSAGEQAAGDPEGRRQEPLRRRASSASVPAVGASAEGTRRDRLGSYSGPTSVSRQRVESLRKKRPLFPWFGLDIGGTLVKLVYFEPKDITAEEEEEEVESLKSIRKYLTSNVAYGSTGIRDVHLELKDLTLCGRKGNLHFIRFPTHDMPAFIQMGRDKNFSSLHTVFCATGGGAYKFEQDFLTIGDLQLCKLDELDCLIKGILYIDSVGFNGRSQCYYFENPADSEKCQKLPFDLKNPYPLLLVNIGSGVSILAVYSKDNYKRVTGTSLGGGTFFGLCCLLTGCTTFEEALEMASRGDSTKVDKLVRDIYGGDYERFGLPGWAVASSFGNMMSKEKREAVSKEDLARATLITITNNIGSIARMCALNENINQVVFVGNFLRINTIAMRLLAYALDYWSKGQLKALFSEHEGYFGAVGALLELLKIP
Nature of the test: Isoform selectivity, purified PanK2. It counts as biochemical. As to conditions: compared to PanK3.

In test [6] the test system is HepG2/C3A cells. Nature of the test: CoA biosynthesis, [3H]pantothenate incorporation into CoA in HepG2/C3A cells. Format: cell-based, human. As to conditions: 24 h labeling, relative to DMSO control.
Test [7] concerns the target T6, PanK1β (Homo sapiens, UniProt Q8TE04).
T6 sequence (Q8TE04 1-373 isoform Q8TE04-2): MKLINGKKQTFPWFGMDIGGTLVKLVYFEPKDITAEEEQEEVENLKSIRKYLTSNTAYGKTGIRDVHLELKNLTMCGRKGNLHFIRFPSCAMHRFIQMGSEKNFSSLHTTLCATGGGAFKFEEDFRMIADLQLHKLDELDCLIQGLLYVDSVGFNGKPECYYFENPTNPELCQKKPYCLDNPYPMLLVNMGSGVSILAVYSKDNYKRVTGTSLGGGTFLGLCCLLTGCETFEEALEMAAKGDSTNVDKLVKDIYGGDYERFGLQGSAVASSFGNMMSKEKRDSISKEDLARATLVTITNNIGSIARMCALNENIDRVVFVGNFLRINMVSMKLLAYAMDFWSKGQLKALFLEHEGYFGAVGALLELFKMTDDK
Nature of the test: Isoform selectivity, purified PanK1β. It counts as biochemical. The following applies: compared to PanK3.

Test [8] concerns the target T3, PanK3. Nature of the test: PanK3 high-throughput screen, two-step luminescence. It counts as biochemical.
Test [9] has as its target T7, PanK3(S195V) (Homo sapiens, UniProt Q9H999, S195V).
T7 sequence (Q9H999 1-370 S195V): T1 sequence (Q9H999 1-370 A267F) with S195V, F267A
As to the kind of experiment: PanK3. It counts as biochemical. The following applies: radioactive assay, 800 ng PanK3(S195V).

Test [10] addresses T3, PanK3. Nature of the test: PanK3 radiochemical. Format: biochemical.
Test [11] addresses S. aureus PanK (SaPanK) (Staphylococcus aureus, UniProt Q2FWC7). Nature of the test: SaPanK radiochemical assay. It counts as biochemical. As to conditions: radioactive assay, 10 ng SaPanK.

T3 sequence (Q9H999 whole entry): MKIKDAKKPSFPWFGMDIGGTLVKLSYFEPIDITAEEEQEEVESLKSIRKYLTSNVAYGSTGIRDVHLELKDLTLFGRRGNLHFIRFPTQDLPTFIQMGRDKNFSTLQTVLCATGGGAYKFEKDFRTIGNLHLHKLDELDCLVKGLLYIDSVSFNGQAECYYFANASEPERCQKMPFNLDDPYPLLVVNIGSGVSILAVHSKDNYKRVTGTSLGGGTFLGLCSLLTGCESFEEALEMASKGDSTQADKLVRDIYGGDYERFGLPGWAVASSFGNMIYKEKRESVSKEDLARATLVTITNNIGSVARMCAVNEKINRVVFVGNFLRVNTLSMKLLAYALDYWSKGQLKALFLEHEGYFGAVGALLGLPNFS
Chain of S. aureus PanK (SaPanK) (Q2FWC7 whole entry): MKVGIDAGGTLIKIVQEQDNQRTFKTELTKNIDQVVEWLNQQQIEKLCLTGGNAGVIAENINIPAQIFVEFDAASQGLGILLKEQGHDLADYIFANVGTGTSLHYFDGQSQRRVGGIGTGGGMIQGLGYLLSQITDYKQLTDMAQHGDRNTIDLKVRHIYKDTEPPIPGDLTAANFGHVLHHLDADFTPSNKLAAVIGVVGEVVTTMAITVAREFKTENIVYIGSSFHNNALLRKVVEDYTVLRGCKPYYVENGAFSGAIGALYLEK

As usually defined, the Kd is the free concentration of one partner at which half of the binding sites on the other are occupied at equilibrium, for simple one-to-one binding. Higher therefore signals weaker binding. For `Nc1ncnc2c1ncn2[C@@H]1O[C@H](COP(=O)(O)OP(=O)(O)OP(=O)(O)O)[C@H]2OC3(O[C@H]21)C([N+](=O)[O-])=CC(=[N+]([O-])[O-])C=C3[N+](=O)[O-]` (stereo partly drawn) [TNP-ATP], the Kd in test [1] is 3.1 ± 0.8 µM; in test [2], 3 ± 0.3 µM; in test [3], 3.6 ± 0.9 µM; in [4], 5.4 ± 0.8 µM.

A word on the IC50: it is the point on the concentration scale where inhibition reaches its midpoint. Low values mean higher potency, high ones lower potency. For the molecule `COc1ccc(Cl)cc1C(=O)NCCc1ccc(S(=O)(=O)NC(=O)NC2CCCCC2)cc1` [Glyburide], in test [5], the “Effect on PanK2 activity” value is recorded as “less sensitive to glyburide than PanK3”. In [6], the “Effect on CoA biosynthesis (pantothenate incorporation into CoA)” value is listed as “inhibited cellular CoA biosynthesis to a lesser extent than MCC-555”. Also, the “Effect on PanK1β activity” value in [7] is recorded as “activated rather than inhibited”. The same molecule registered an IC50 in [8] of 6.8 µM. For the same molecule, in test [9], the “Inhibition of PanK3(S195V)” value is recorded as “refractory to inhibition”. In [10], half-maximal inhibition (IC50) required 8.5 µM and the “Kinetic mechanism of PanK3 inhibition with respect to ATP” value is reported as “uncompetitive”. Besides, the “Inhibition of SaPanK” value in test [11] was “refractory; also recorded: not inhibited”.

The record behind these values is PMC2929395 (Chemistry & biology, 2010).
